“And” between values parts separate entries of the source, which are not always exact repeats. Identical values can stand only once. The source made the active and inactive calls.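 The calls were made as follows: active = fitted AC50 at or below twice the top valid dose for that sample, signal falling; inconclusive = flat curve at 30 to 70 percent inhibition, or bad fit; inactive = the rest.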
tested on: C. neoformans growth, alamar blue, 24 h; assay: cell lysis of Cryptococcus neoformans, alamar blue – dry powder, set 3, mechanism study for C. neoformans antifungal project, dose response (AID 743298); conditions: not given

Compound	AC50
Cc1ccccc1OCCn1c(=S)[nH]c2ccccc21	> 70 µM (inactive)
Cc1cccc(OCCn2c(=S)[nH]c3ccccc32)c1	21.1 µM
CC(C)c1ccccc1OCCn1c(=S)[nH]c2ccccc21	20.1 µM
Cc1ccc(OCCn2cnc3ccccc32)cc1	12 µM
Cc1ccc(OCCn2c(SCCO)nc3ccccc32)c(C(C)C)c1	26 µM
Fc1cccc(OCCn2c(=S)[nH]c3ccccc32)c1	25.6 µM
Cc1ccc(C(C)C)c(OCCn2c(=S)[nH]c3cccc(F)c32)c1	13.9 µM
CC(C)(C)c1ccc(OCCn2cnc3ccccc32)cc1	17.5 µM
Fc1ccc2[nH]c(=S)n(CCOc3ccccc3)c2c1	25.2 µM
Fc1ccccc1OCCn1c(=S)[nH]c2ccccc21	23 µM
COc1ccc(OCCn2c(=S)[nH]c3ccccc32)cc1	30.3 µM
CC(C)(C)c1ccc(OCCn2c(=S)[nH]c3ccccc32)cc1	7.11 µM
S=c1[nH]c2ccccc2n1CCOc1ccc(Cl)cc1	6.01 µM
Cc1cccc(OCCn2c(=S)[nH]c3cc(F)ccc32)c1	12.1 µM and 11.7 µM
Cc1ccc(OCCn2c(C)nc3ccccc32)cc1	21.9 µM
Cc1ccc(OCCn2cnc3ccccc32)c(C(C)C)c1	> 70 µM (inactive)

Compound	AC50
Fc1cccc2c1[nH]c(=S)n2CCOc1ccccc1	20 µM and 22.2 µM
S=c1[nH]c2cccc(Cl)c2n1CCOc1ccccc1	6.34 µM and 6.02 µM
CC(C)(C)c1ccccc1OCCn1c(=S)[nH]c2ccccc21	11.2 µM
Cc1cccc2[nH]c(=S)n(CCOc3ccccc3)c12	15.1 µM
S=c1[nH]c2ccccc2n1CCOc1ccccc1	24.4 µM
Cc1ccc2c(c1)[nH]c(=S)n2CCOc1ccccc1	12.2 µM and 12.4 µM
CC(C)c1ccc(OCCn2c(=S)[nH]c3ccccc32)cc1	5.77 µM
Cc1ccc(C(C)C)c(OCCn2c(=S)[nH]c3cccc(Cl)c32)c1	9.67 µM
COc1cccc(OCCn2c(=S)[nH]c3ccccc32)c1	28.8 µM
Fc1ccc2c(c1)[nH]c(=S)n2CCOc1ccccc1	27.5 µM and 26.8 µM
Cc1ccc(C(C)C)c(OCCn2c(=S)[nH]c3ccccc32)c1	9.65 µM and 9.22 µM
O=c1[nH]c2ccccc2n1CCOc1ccccc1	34 µM
Cc1ccc(OCCn2c(=S)[nH]c3ccccc32)c(C(C)C)c1	12.3 µM and 10.4 µM
Cc1ccc(OCCn2c(=S)[nH]c3ccccc32)cc1	5.63 µM
CCOc1ccc(OCCn2c(=S)[nH]c3ccccc32)cc1	12.3 µM
S=c1[nH]c2ccccc2n1CCOc1ccccc1Cl	34 µM

tested on: not listed separately; assay: as above; conditions: C. neoformans growth, alamar blue, 24 h; at 35 µM (top of the series)

Compound	activity change, negative = inhibition
COc1ccccc1OCCn1c(=S)[nH]c2ccccc21	-19.4% (inactive)
Cc1ccc(C(C)C)c(OCCn2c(=S)[nH]c3c(C)cccc32)c1	59.5% (inactive)
S=c1[nH]c2cc(Cl)ccc2n1CCOc1ccccc1	39.6% (inactive)
Cc1cccc(OCCn2c(=S)[nH]c3ccccc32)c1C	51.8% (inactive)
CSc1nc2ccccc2n1CCOc1cc(C)ccc1C(C)C	-25.9% (inactive)
Cc1ccc(C(C)C)c(OCCn2c(=S)[nH]c3cc(F)ccc32)c1	55% (inactive)
Cc1ccc(C(C)C)c(OCCn2c(=S)[nH]c3ccc(Cl)cc32)c1	30.7% (inactive)
c1ccc(OCCn2cnc3ccccc32)cc1	30.3% (inactive)
Cc1ccc(C(C)C)c(OCCn2c(=S)[nH]c3cccc(C)c32)c1	35.3% (inactive)
COCc1nc2ccccc2n1CCOc1ccc(C(C)(C)C)cc1	5.49% (inactive)
Cc1cccc(OCCn2c(=S)[nH]c3ccc(C(F)(F)F)cc32)c1	39.4% (inactive)
Cc1ccc(C(C)C)c(OCCn2c(CO)nc3ccccc32)c1	8.72% (inactive)
Cc1ccc(C(C)C)c(OCCn2c(=S)[nH]c3c(F)cccc32)c1	16% (inactive)
CC(C)c1ccccc1NCCn1c(=S)[nH]c2ccccc21	34.7% (inactive)
Cc1ccc(OCCn2c(=S)[nH]c3ccccc32)c(C)c1	12.9% (inactive)
Cc1cccc(OCCn2c(=S)[nH]c3cc(C(F)(F)F)ccc32)c1	19% (inactive)
Cc1ccc(C(C)C)c(OCCn2c(=S)[nH]c3c(Cl)cccc32)c1	-22.6% (inactive)
Cc1cccc(OCCn2c(=S)[nH]c3c(F)cccc32)c1	-5.91% (inactive) and -16.2% (inactive)
Cc1ccc(C)c(OCCn2c(=S)[nH]c3ccccc32)c1	26.6% (inactive)
Cc1ccc(C(C)C)c(OCCn2c(=S)[nH]c3ccc(F)cc32)c1	44.9% (inactive)
